The results in this text go back to article PMC8667944 (Journal of Enzyme Inhibition and Medicinal Chemistry, 2021).

pKi: −log10 of the molar value.

One experiment deals with T1, NgCA (Neisseria gonorrhoeae, UniProt Q50940).
T1 construct: gene cah; recombinant enzyme obtained in-house
T1 sequence (Q50940 27-252): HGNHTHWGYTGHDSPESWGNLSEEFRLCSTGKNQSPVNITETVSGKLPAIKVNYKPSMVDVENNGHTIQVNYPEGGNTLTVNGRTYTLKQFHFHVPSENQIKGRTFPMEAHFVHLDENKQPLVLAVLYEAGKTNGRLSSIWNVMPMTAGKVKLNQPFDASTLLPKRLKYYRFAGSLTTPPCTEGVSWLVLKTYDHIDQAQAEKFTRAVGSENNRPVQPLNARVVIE
The experiment is described as follows: stopped-flow CO2 hydration assay. It is filed as biochemical.
Conditions: not given
The compound `S=C(S)N1CCCCC1` [compound 17, 17] had a pKi of 6.14. Compound `S=C(S)N1CCNCC1` [compound 28, 28] had a pKi of 6.56.

The experiment is the same for the next values; noted with them: read-out: Ki (nM)^a / NgCA.
Regarding `O=C(O)C1CCCN(C(=S)S)C1` (racemic) [compound 9, 9], the Ki came out at 297 nM.

As to `S=C(S)NC1CN2CCC1CC2` (racemic) [compound 12, 12], the Ki was found to be 482 nM.

Take `NS(=O)(=O)c1ccc(CCNC(=S)S)cc1` [compound 1, 1]: the Ki is 83.7 nM. For `S=C(S)NCCc1ccccc1` [compound 2, 2], the Ki worked out at 259 nM. Regarding `CN(C)CCNC(=S)S` [compound 3, 3], the Ki was 568 nM. Regarding `OCCCCNC(=S)S` [compound 4, 4], the Ki came out at 438 nM. Still for that read-out and setting: the same measure for `OCCCNC(=S)S` [compound 5, 5]: 413 nM; for `CC(C)(C)OC(=O)NC1CCCN(C(=S)S)C1` (stereo not drawn) [compound 6, 6]: 538 nM; for `O=C(O)C1CCCCN1C(=S)S` (stereo not drawn) [compound 7, 7]: 827 nM. Still for that read-out and setting: as for `O=C(O)C1CCN(C(=S)S)CC1` [compound 8, 8], the figure is 514 nM; as for `OC1CCCN(C(=S)S)C1` (stereo not drawn) [compound 10, 10], 367 nM; as for `S=C(S)N[C@@H]1CN2CCC1CC2` [compound 11, 11], 473 nM.

In the case of `O=C(O)[C@@H]1CCCN(C(=S)S)C1` [compound 13, 13], the Ki was 242 nM. For `O=C(O)[C@H]1CCCN(C(=S)S)C1` [compound 14, 14], the Ki was 335 nM. For the compound `CC(=O)NC1CCCN(C(=S)S)C1` (stereo not drawn) [compound 15, 15], the Ki stood at 451 nM. For the compound `S=C(S)N[C@H]1CN2CCC1CC2` [compound 16, 16], the Ki was 518 nM. Same read-out and setting: as for `O=C(O)C1COCCN1C(=S)S` (stereo not drawn) [compound 18, 18], the figure is 672 nM; as for `CC1COCCN1C(=S)S` (stereo not drawn) [compound 19, 19], 723 nM; as for `O=C(CN1CCN(C(=S)S)CC1)NC1CCCCC1` [compound 20, 20], 84.4 nM.

For `OCCCCCNC(=S)S` [compound 21, 21], the Ki amounted to 454 nM.

Turning to `CC(C)CN(CC(C)C)C(=S)S` [compound 22, 22], the Ki turned out to be 554 nM.

As for `S=C(S)N1CCOCC1` [compound 23, 23], the Ki was determined as 483 nM. On the same count and under the same terms, the same measure for `CN(Cc1ccccc1)C(=S)S` [compound 24, 24]: 654 nM; for `CCCCN(CCCC)C(=S)S` [compound 25, 25]: 460 nM. For `CCCN(CCC)C(=S)S` [compound 26, 26], the Ki was found to be 522 nM. Regarding `CCCCN(CC)C(=S)S` [compound 27, 27], the Ki was found to be 577 nM. As for `S=C(S)N1CCN(C(=S)S)CC1` [compound 29, 29], the Ki is 136 nM.

Consider `N#CC1(c2ccccc2)CCN(C(=S)S)CC1` [compound 30, 30], for which the Ki stood at 365 nM.

In general, pKi refers to the Ki on a negative log10 scale, so that one unit is a factor of ten. High values mean a small Ki, low ones a large Ki.
